Measurements published in US20130191934A1, “TREATMENT OF SYMPTOMS ASSOCIATED WITH MENOPAUSE” (INDIANA UNIVERSITY RESEARCH AND TECHNOLOGY CORPORA, priority 2010, published 2013).
Entries after “also recorded” stand apart in the source; their conditions may differ.

Tests used:
OVEX'ed rats = conditions: cited from earlier work; for anxiety behaviors in the elevated plus maze (EPM) and open field tests (OFT): OVEX'ed rats; for block of the anxiety induced by OVEXing a female rat: daily s.c.: E2 0.25 mg/kg, DPN 1.0 mg/kg, PPT 1.0 mg/kg, Walf et al., 2010
panic-prone rats = test: Sodium lactate challenge in panic-prone (l-allylglycine) rats; assay type: in vivo, rat; conditions: for anxiety-like responses (social interaction duration) after sodium lactate: 30 mg/kg i.p. before 15 min i.v. 0.5M sodium lactate, FIG. 1b; for lactate induced increases in core body temperature / lactate induced increases in heart rate: 30 mg/kg i.p.; for lactate induced increases in core body temperature: FIG. 1c; for lactate induced increases in heart rate: FIG. 1d
From the text: Panic disorder is associated with disruption of central inhibitory gamma-aminobutyric acid (GABAergic) tone, and may contribute to panic attacks which are consistently provoked by ordinarily mild physical stressors such as mild osmotic disturbances (e.g., intravenous sodium lactate challenges).
Orexin/hypocretin producing neurons are almost exclusive to dorsomedial hypothalamus and adjacent lateral hypothalamus, and play a critical role in maintaining wakefulness, vigilance and central sympathetic mobilization, which are key components of panic and anxiety. Experiments were conducted to investigate whether the administration of either a systemic orexin 1 antagonist or silencing the hypothalamic orexin gene product with RNA interference could block lactate-induced panic responses.

[1] = under investigation for insomnia; cited from earlier work
ORX1 and ORX2 receptors = conditions: cited from earlier work
ORX-ir neurons = test: c-Fos induction in ORX-ir neurons after yohimbine; assay type: in vivo, rat; conditions: 5 mg/kg i.p.; male rats; FIG. 5A
From the text: (§1) FIG. 5A & 5B are graphs showing the effects of yohimbine on cellular responses. […] Black and gray outlined bars respectively represent c-FOS/ORX double and total ORX-ir labeled neurons in the hypothalamus. *Mann-whiney U=1.5, p=0.001. […] Treatment by time effect F(89,267)=2.7, p<0.001.
(§2) Conversely, administering intravenous infusions of yohimbine (alpha2-adrenergic autoreceptor antagonist) to symptomatic, but not asymptomatic, menopausal women provokes “hot flashes” (Freedman et al, Obstet Gynecol, 1990. 76(4): p. 573-8). […] A dramatic drop in core body temp also immediately follows this, which also occurs in women following the onset of a hot flash.

[2] = system: female ovariectomized rats; test: Yohimbine challenge, tail skin and core body temperature in OVEX rats; assay type: in vivo, rat; conditions: 5 mg/kg i.p.
Method: as §1
To objectively measure “hot flash” (assessed by tail temp) related activity in female OVEX rats, magnetically activated radiotelemetry probes (dimensions: 3.5 cc volume with 0.05° C. resolution) were implanted subcutaneously under the skin on the back of rat. The probe has 2 leads, each with an ˜1 cm long temp sensor that can be implanted in the tail and into the abdominal cavity to respectively measure skin and core body temp (as well as general ambulatory activity) in freely moving rats for extended periods. Recently we used the dual thermistor probes and were able to replicate previous findings that tail temp decreases during active phase in sham-OVEX rats, but this decrease is blunted in OVEX rats (FIG. 4B).
as §2

menopausal women = conditions: cited from earlier work
[3] = system: adult female rats (OVEX or tamoxifen); test: Open field anxiety test in tamoxifen-treated or ovariectomized female rats; assay type: in vivo, rat; conditions: for anxiety-like behavior (time spent in center of open field) in OVEX rats: 30 mg/kg i.p. 30 min prior to testing, OVEX female rats, FIG. 3B
Method: FIG. 3A & 3B are bar graphs showing the effects of subcutaneously injecting adult female rats with 3 days of vehicles (10% DMSO, 90% sesame oil) or 10 mg/kg tamaoxifen (a nonselective estrogen receptor antagonist) on time spent in the center of an open field. * represents p,0.05 with unpaired t-test. n=6/group. […] Bars represent mean and error bars represent SEM. * represents p,0.05 Mann Whitney U test following an ANOVA f(3,35)=2.9, p=0.048.
Furthermore, experiments were conducted to investigate the impact of lowering estrogen activity by either administering tamoxifen or ovariectomizing rats.

[4] = system: female ovariectomized, or sham-OVEX control, rats; test: Hypercapnia (20% CO2) challenge, tail skin temperature in OVEX rats; assay type: in vivo, rat; conditions: 30 mg/kg pretreatment
From the text: Hypercapnia model: There is also evidence that altered respiration patterns may trigger hot flashes whereas paced respiration may alleviate hot flash incidence and intensity. Increased or decreased respiration activity alters blood CO2/pH levels, and a hypersensitivity to CO2/pH may be present in conditions where estrogen activity is very low.

[5] = 30 mg/kg intraperitoneal; cited from earlier work
[6] = system: dorsomedial hypothalamus (DMH) of anesthetized rat; test: BMI microinjection into the DMH of anesthetized rats; assay type: in vivo; conditions: 30 mg/kg i.p.; BMI 20 pmol/50 nL into DMH; FIG. 2; listed as SB334861
Method: FIG. 2 Continuous and simultaneous measurement of blood pressure (top panel), heart rate (middle panel), and core body temperature (bottom panel) in an isoflurane anesthetized rat after identical microinjections of BMI (20 pmol/50 nL) into the DMH (time marks 1 and 3) before and after systemic administration of the orexin-1 receptor antagonist SB334861 (30 mg/kg i.p.; time mark 2).
As disclosed herein, experiments were conducted to determine whether an orexin-1 receptor antagonist (SB334861) or an orexin-2 receptor antagonist (TCSOX229) could attenuate the physiologic responses to chemical stimulation of the DMH. Chemical stimulation or disinhibition of neurons in the region of the dorsomedial hypothalamus (DMH) was conducted using the GABAA receptor antagonist bicuculline methiodide (BMI). To test orexin inhibitors ability to attenuate the BMI stimulated response, BMI was microinjected (20 pmol/50 nL) into the DMH of urethane-anesthetized rats both before and after systemic administration of the orexin inhibitor, and the responses were monitored.

[7] = OVEX rats, 5 min 20% CO2, FIG. 6B
[8] = listed as orexin 1 receptor antagonist

## CCCc1c(-c2ccc(O)cc2)nn(-c2ccc(O)cc2)c1-c1ccc(O)cc1 [PPT, Tris(4-hydroxyphenyl)-4-propyl-1Hpyrazole]
OVEX'ed rats
  anxiety behaviors in the elevated plus maze (EPM) and open field tests (OFT): increase anxiety behaviors
  block of the anxiety induced by OVEXing a female rat: not

## Cc1nnc2n1-c1ccc(Cl)cc1C(c1ccccc1)=NC2 [alprazolam]
panic-prone rats; alprazolam 3 mg/kg i.p., FIG. 1
  lactate-induced responses versus vehicle treated groups (Fisher's LSD, p<0.05): significant differences

## C[C@]12CC[C@@H]3c4ccc(O)cc4CC[C@H]3[C@@H]1CC[C@@H]2O [E2, 17-β-estradiol]
OVEX'ed rats
  anxiety behaviors in the elevated plus maze (EPM) and open field tests (OFT): decreased anxiety behaviors
  block of the anxiety induced by OVEXing a female rat: block the anxiety

## Cc1ccc(-n2nccn2)c(C(=O)N2CCN(c3nc4cc(Cl)ccc4o3)CC[C@H]2C)c1 [MK4305]
[1]
  safety and side effects in phase III trials: safe, have few side effects
ORX1 and ORX2 receptors
  mode of orexin receptor antagonism: competitive, dual ORX1 and ORX2 receptor antagonists

## N#CC(Cc1ccc(O)cc1)c1ccc(O)cc1 (stereo not drawn) [DPN, diarylpropionitrile]
OVEX'ed rats
  anxiety behaviors in the elevated plus maze (EPM) and open field tests (OFT): decreased anxiety behaviors
  block of the anxiety induced by OVEXing a female rat: block the anxiety

## COC(=O)[C@@H]1[C@H]2C[C@H]3c4[nH]c5ccccc5c4CCN3C[C@@H]2CC[C@@H]1O [yohimbine]
ORX-ir neurons
  cellular responses (c-Fos induction) in ORX neurons: increase cellular activity in ORX neurons
[2]; female OVEX vs sham-OVEX rats, FIG. 5B
  tail skin temperature: rapidly increase tail skin temp in female OVEX, but not sham OVEX control rats
[2]; yohimbine challenge
  core body temp following tail skin temp increase: dramatic drop
Menopausal women; intravenous infusions, symptomatic, but not asymptomatic, menopausal women
  provocation of hot flashes: provokes

## Clc1cccc(Cl)c1N=C1NCCN1 [clonidine]
Menopausal women; Freedman et al, 1990
  incidence of hot flashes in menopausal women: reduce the incidence

## CNC(=O)[C@@H](c1ccccc1)N1CCc2cc(OC)c(OC)cc2[C@@H]1CCc1ccc(C(F)(F)F)cc1 [Almorexant]
[1]
  safety and side effects in phase III trials: safe, have few side effects
ORX1 and ORX2 receptors
  mode of orexin receptor antagonism: competitive, dual ORX1 and ORX2 receptor antagonists

## CC/C(=C(\c1ccccc1)c1ccc(OCCN(C)C)cc1)c1ccccc1 [tamoxifen]
[3]; tamoxifen 10 mg/kg s.c., 3 days, adult female rats, FIG. 3A
  anxiety-like behavior (time spent in center of open field) compared to controls: increased anxiety-like behavior

## Cc1nc2ccc(NC(=O)Nc3ccnc4cccnc34)cc2o1 [SB334867, 1-(2-methylbenzoxazol-6-yl)-3-[1,5]naphthyridin-4-yl urea]
[4]; [7]
  intensity of the hot flash (tail skin temperature) after 20% CO2: reduces the intensity
  onset of the hot flash (tail skin temperature) after 20% CO2: delays the onset
[4]; sham-OVEX controls
  baseline levels of tail temp in controls: reduced baseline levels of tail temp
[5]
  crossing of blood brain barrier: crosses blood brain barrier
  duration of central activity: > 4 h
[6]
  BMI-evoked increase in blood pressure: significant attenuation
  BMI-evoked increase in core body temperature: significant attenuation
  BMI-evoked increase in heart rate: significant attenuation
[3]
  anxiety-like behavior (time spent in center of open field) in OVEX rats: reverses anxiogenic effects
[3]; listed as ORX 1 receptor antagonist
  anxiety-like behavior (time spent in center of open field) in OVEX rats: reverse the anxiogenic effects of OVEX
panic-prone rats
  anxiety-like responses (social interaction duration) after sodium lactate: Blocks; also recorded: attenuated
  lactate induced increases in core body temperature: block; also recorded: attenuated
  lactate induced increases in heart rate: attenuated
panic-prone rats; [8]
  anxiety-like responses (social interaction duration) after sodium lactate: blocks
  lactate induced increases in core body temperature: blocks
  lactate induced increases in heart rate: blocks
